Target: Mitogen-activated protein kinase kinase kinase kinase 1 (Homo sapiens, UniProt Q92918)
Assay: Enzymatic Activity Assay: Recombinant HPK1 kinase domain produced via baculovirus infection of insect cells was obtained from Proteros (Proteros Biostructures #PR-0322) and was pre-activated in the presence of 2 mM ATP (Sigma-Aldrich, cat #GE27-2056-01) and 2 mM magnesium chloride for 16 hours at 4° C. The protein reaction mixture was then loaded to a desalting column (Thermo Fisher Scientific, Cat #89889) to remove excess ATP. HPK1 was eluted with buffer containing 20 mM Tris (2-Amino-2-(hydroxymethyl)propane-1,3-diol) pH 8.0, 150 mM NaCl, 2 mM dithiothreitol and 5% glycerol, and was frozen at −80° C. for later use. HPK1 dual phosphorylation was confirmed by mass spectrometry.Ten nanoliters of test compounds dissolved in DMSO at various concentrations were dispensed into a 384-well ProxiPlate (PerkinElmer #6008289). Five microliters of a solution of recombinant HPK1 diluted in HPK1 kinase assay buffer (50 mM BES [N,N-Bis(2-hydroxyethyl)-2-aminoethanesulfonic acid], pH 7.0; 10 mM magnesium chloride; 0.01% Triton X-100; 1 mM dithiothreitol; 0.01% bovine serum albumin; 0.1 mM sodium orthovanadate) was added to the compound-containing plate and was incubated for 15 minutes at 25° C. Five microliters of a mixture of ATP (Sigma-Aldrich #A6559) and peptide substrate STK S1 (Cisbio #61ST1BLC) diluted in HPK1 kinase assay buffer was then added to start the reaction. […]

Mitogen-activated protein kinase kinase kinase kinase 1, sequence (Q92918 whole entry, the tested form may be a part): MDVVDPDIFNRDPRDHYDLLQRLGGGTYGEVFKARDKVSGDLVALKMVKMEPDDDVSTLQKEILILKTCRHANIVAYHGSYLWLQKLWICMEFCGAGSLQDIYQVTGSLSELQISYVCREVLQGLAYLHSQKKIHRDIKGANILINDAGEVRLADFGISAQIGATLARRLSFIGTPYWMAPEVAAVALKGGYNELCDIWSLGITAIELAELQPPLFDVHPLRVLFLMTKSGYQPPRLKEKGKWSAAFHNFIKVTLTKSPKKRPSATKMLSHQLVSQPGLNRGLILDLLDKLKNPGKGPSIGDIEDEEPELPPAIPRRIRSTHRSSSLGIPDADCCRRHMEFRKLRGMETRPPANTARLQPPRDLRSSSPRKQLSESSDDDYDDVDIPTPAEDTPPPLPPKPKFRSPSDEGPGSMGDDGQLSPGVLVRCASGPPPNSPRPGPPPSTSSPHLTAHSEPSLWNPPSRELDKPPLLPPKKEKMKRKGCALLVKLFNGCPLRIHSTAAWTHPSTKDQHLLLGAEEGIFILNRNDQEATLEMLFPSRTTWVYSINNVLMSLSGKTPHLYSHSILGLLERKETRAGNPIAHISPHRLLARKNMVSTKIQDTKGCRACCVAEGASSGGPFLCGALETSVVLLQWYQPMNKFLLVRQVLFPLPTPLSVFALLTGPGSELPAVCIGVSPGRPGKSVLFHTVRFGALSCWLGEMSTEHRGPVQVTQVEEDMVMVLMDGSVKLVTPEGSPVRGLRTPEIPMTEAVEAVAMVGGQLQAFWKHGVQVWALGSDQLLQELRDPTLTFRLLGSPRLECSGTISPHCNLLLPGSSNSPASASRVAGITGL

IC50 [nM] | Compound
0.2 | CC(C)n1cnc2cc(-c3ccc4c(c3)N([C@H]3C[C@@H](N5CCC(C)(C)C5)C3)C(=O)C43CCN(C(=O)[C@H]4CC[C@@H](C)O4)CC3)nc(Nc3ccncc3F)c21
0.3 | CC(C)n1cnc2cc(-c3ccc4c(c3)N([C@H]3C[C@@H](N5CCC(C)(C)C5)C3)C(=O)C43CCN(C(=O)[C@@H]4OCC[C@@H]4C)CC3)nc(Nc3ccncc3F)c21

— ChEMBL document CHEMBL5728586, “Substituted 6-azabenzimidazole compounds” (2021)
